Test [1] deals with T1, MAG (Rattus norvegicus, UniProt P07722).
T1 construct: host or cells: dhfr-deficient CHO cells (CHO-MAG2)
T1 sequence (P07722 20-626): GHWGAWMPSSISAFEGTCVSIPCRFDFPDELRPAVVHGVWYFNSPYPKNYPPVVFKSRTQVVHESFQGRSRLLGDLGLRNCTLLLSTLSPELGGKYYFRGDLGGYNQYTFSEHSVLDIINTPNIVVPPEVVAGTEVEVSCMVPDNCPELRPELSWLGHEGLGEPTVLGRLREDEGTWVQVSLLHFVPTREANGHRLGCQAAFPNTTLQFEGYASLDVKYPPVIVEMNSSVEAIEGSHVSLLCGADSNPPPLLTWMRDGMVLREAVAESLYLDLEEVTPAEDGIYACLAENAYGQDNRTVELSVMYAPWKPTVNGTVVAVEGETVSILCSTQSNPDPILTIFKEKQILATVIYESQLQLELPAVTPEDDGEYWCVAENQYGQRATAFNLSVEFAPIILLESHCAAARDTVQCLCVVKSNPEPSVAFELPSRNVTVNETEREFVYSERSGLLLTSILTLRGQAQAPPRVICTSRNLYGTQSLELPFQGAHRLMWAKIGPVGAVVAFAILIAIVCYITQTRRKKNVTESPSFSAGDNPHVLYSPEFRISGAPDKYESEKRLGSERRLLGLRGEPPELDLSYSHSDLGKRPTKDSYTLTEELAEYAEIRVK
Kind of test: Neurite outgrowth of DRG neurons on MAG-expressing and control CHO cells: reversal of promotion by MAG. Format: cell-based. To be noted: for % Reversal of Promotion: PND 2 DRG neurons; for effect on the promotion of neurite outgrowth by MAG: increasing concentrations of sugar, text summary of TABLE 2. As for the experimental part:
(§1) Confluent monolayers of control and MAG-expressing CHO cells were established over a 24-hour (h) period in individual chambers of an 8-well tissue culture slide (Lab-Tek). […] Culture medium was SATO containing 2% FCS. Where indicated, 20 mU of VCS was included throughout the coculture period (see Example 4), or monolayers were incubated with small oligosaccharides for one hour before adding the neuronal cell suspension and included throughout the coculture period. After periods of time as indicated, the cocultures were fixed for 30 min with 4% paraformaldehyde and permeabilized with ice-cold methanol for 2 min. The cells were then blocked for 30 min with DMEM containing 10% FCS and incubated for 2 h with a rabbit polyclonal antibody against the neuronal marker GAP43 (1:4000). Cells were washed three times with PBS-BSA (2%) and then incubated for 30 min at room temperature with a biotinylated donkey anti-rabbit Ig (1:300, Amersham), washed three times, and incubated with streptavidin-conjugated Texas Red (1:300, Amersham) for 30 min. After three more washes, the slides were mounted in Permfluor (Baxter) and viewed with a Zeiss fluorescent microscope. The length of the longest neurite for each GAP43-positive neuron was determined using the Biological Detection System image analysis program (Pittsburgh).
The transfected CHO cell assay described in Example 2 may also be used to screen and identify agents that alter neurite growth properties of a particular neuronal cell type and age in a MAG-dependent fashion. Neurite outgrowth was compared for cerebellar (TABLE 1) and DRG (TABLE 2) neurons from PND 2 animals, grown on MAG-expressing and control CHO cells as described in Example 2. Where indicated, small sialic acid-bearing sugars were included in the co-cultures at increasing concentrations. 100% inhibition was taken as the difference in length of neurites on control and MAG-expressing CHO cells. Results are the mean of at least two experiments, with at least 150 neurons measured for each experiment. DD-NANA=2,3-dideoxy sialic acid; SL=sialo 2,3-α lactose.
Single cell suspensions of different neurons at various postnatal ages were washed and resuspended in phosphate-buffered saline (PBS). Approximately 2×10^6 cells were incubated with 50 mU of Vibrio cholera sialidase (VCS, Calbiochem) (a neuraminidase) in a final volume of 0.5 ml for 2 hours at 37° C. Neurons were washed with PBS and resuspended in SATO medium containing 2% FCS for neurite outgrowth experiments, or in PBS for neurite binding assays.

The target in test [2] is T2, MAG (Rattus norvegicus, UniProt P07722).
T2 construct: consisting of the extracellular domain of MAG fused to the Fc region of IgG (MAG-Fc); host or cells: COS cells
T2 sequence (P07722 20-516 limits assumed): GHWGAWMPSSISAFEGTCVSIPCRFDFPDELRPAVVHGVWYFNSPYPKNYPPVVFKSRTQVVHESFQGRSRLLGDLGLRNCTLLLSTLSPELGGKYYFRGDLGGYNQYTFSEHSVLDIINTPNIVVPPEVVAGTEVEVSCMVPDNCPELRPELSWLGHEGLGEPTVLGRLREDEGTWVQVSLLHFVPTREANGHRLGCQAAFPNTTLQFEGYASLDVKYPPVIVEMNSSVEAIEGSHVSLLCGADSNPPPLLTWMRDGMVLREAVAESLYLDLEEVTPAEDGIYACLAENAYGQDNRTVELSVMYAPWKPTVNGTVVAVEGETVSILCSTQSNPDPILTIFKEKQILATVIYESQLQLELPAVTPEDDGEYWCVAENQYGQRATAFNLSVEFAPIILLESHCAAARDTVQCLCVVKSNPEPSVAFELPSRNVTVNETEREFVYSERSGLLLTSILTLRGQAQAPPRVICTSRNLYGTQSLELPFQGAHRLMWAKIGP
Briefly: Radiolabelled MAG-Fc binding to cerebellar neurons. To be noted: PND1 cerebellar neurons; antibody 5 μg/ml or sialidase treatment of neurons before binding. As for the experimental part:
FIG. 4. sialic acid-dependent Binding of MAG to Cerebellar and DRG Neurons. Radiolabelled MAG-Fc (solid bars) was allowed to bind to PND 1 cerebellar and DRG neurons. Incubations were also carried out in the presence of 5 μg/ml of MAG 513 monoclonal antibody (dark hatched bars) or with neurons that had been desialyated (speckled bars). Each experiment was carried out in quadruplicate. The results are the mean of 3 experiments.
MAG binds to all types of neurons tested in a sialic acid-dependent fashion (Kelm et al., Curr. Biol., 4, pp. 965-72 (1994)). […] Sialidase is an enzyme which removes sialic acid from glycoconjugates.

Test [3] concerns cerebellar neurons. Kind of test: Neurite outgrowth of cerebellar neurons on MAG-expressing versus control CHO cells. Format: cell-based, rat. The note with it: all ages tested, four MAG-expressing CHO cell lines. Here is the method:
FIG. 1. Inhibition of Neurite outgrowth from Cerebellar Neurons by MAG. Cerebellar neurons from post-natal day (PND) 1, 4 and 7 were grown overnight on a monolayer of MAG-expressing (clear bars) or control transfected CHO cells (hatched bars). Neurons were stained for GAP-43 antigen and neurite length was measured and the average […] length calculated from at least 150 measurements (+/−SEM).
as §1, with “Cells were washed three times with PBS-BSA (2%) and then incubated for 30 min at room temperature with a biotinylated donkey anti-rabbit Ig (1:300, Amersham), washed three times, and incubated with streptavidin-conjugated Texas Red (1:300, Amersham) for 30 min. After three more washes, the slides were mounted in Permfluor (Baxter) and viewed with a Zeiss fluorescent microscope.” left out

In test [4] the test system is DRG neurons. Kind of test: Neurite outgrowth of DRG neurons on MAG-expressing versus control CHO cells. The format is cell-based, rat. Here is the method:
FIG. 2. Effect of MAG on Neurite Outgrowth from DRG Neurons of Different Ages. […] 1.
as §1

The test system of test [5] is retinal ganglion (RG), hippocampal (HN), motor neurons (MN) and superior-cervical ganglion (SCG). Kind of test: Neurite outgrowth of different neuronal cell types on MAG-expressing versus control CHO cells. To be noted: neurons from one-day old rats (PND1). The format is cell-based, rat. As for the experimental part: FIG. 3. Effect of MAG on Neurite Outgrowth from Different Neuronal Cell Types. Various neurons from PND1 animals were isolated and grown overnight on MAG-expressing (dark hatched) or control (light hatched) CHO cells. Average neurite length was calculated as described in FIG. 1.
as §1, with “Cells were washed three times with PBS-BSA (2%) and then incubated for 30 min at room temperature with a biotinylated donkey anti-rabbit Ig (1:300, Amersham), washed three times, and incubated with streptavidin-conjugated Texas Red (1:300, Amersham) for 30 min. After three more washes, the slides were mounted in Permfluor (Baxter) and viewed with a Zeiss fluorescent microscope.” left out

Test [6] relates to cerebellar neurons. To be noted: Mukhopadhyay et al.; cited from earlier work.
The mark [7] stands for this setting: 1 mM sugar, MAG-expressing CHO cells.

Take `CC(=O)N[C@H]1[C@H]([C@H](O)[C@H](O)CO)OC(C(=O)O)=C[C@@H]1O` [DD NANA, 2,3-dideoxy sialic acid]: the “% Reversal of Promotion” value in test [1] (setting [7]) is 0%; in test [1] (10 mM sugar, MAG-expressing CHO cells), 51%; in test [1] (20 mM sugar, MAG-expressing CHO cells), 97%; in test [1] (20 mM sugar, control CHO cells) it was 0%. For the same molecule, the “effect on the promotion of neurite outgrowth by MAG” value in test [1] is listed as “abolished the promotion of neurite outgrowth by MAG completely”.
`CC(=O)N[C@H]1[C@H]([C@H](O)[C@H](O)CO)O[C@@](O[C@H]2[C@@H](O)[C@@H](CO)O[C@@H](O[C@H]3[C@H](O)[C@@H](O)C(O)O[C@@H]3CO)[C@@H]2O)(C(=O)O)C[C@@H]1O` (stereo partly drawn) [SL, sialo 2,3-α lactose]: the “% Reversal of Promotion” value in test [1] (setting [7]) is on record as 0%; in test [1] (5 mM sugar, MAG-expressing CHO cells), 96%; in test [1] (18 mM sugar, MAG-expressing CHO cells) it was 98%; in test [1] (18 mM sugar, control CHO cells) it was 0%. The “effect on the promotion of neurite outgrowth by MAG” value in test [1] was “abolished the promotion of neurite outgrowth by MAG completely”.
On to “sialidase: Vibrio cholera sialidase (a neuraminidase), enzyme which removes sialic acid from glycoconjugates”, for which the “effect on promotion of axonal outgrowth by MAG” value in test [1] (newborn (PND1) DRG neurons desialyated with sialidase) is listed as “completely abolished”. Further, in test [2], the “effect on binding of MAG to cerebellar neurons” value was “abolished”.

B1: MAG: myelin-associated glycoprotein expressed on the surface of transfected CHO cells (protein, UniProt P07722 20-626, looked up)
Myelin-associated glycoprotein: GHWGAWMPSSISAFEGTCVSIPCRFDFPDELRPAVVHGVWYFNSPYPKNYPPVVFKSRTQVVHESFQGRSRLLGDLGLRNCTLLLSTLSPELGGKYYFRGDLGGYNQYTFSEHSVLDIINTPNIVVPPEVVAGTEVEVSCMVPDNCPELRPELSWLGHEGLGEPTVLGRLREDEGTWVQVSLLHFVPTREANGHRLGCQAAFPNTTLQFEGYASLDVKYPPVIVEMNSSVEAIEGSHVSLLCGADSNPPPLLTWMRDGMVLREAVAESLYLDLEEVTPAEDGIYACLAENAYGQDNRTVELSVMYAPWKPTVNGTVVAVEGETVSILCSTQSNPDPILTIFKEKQILATVIYESQLQLELPAVTPEDDGEYWCVAENQYGQRATAFNLSVEFAPIILLESHCAAARDTVQCLCVVKSNPEPSVAFELPSRNVTVNETEREFVYSERSGLLLTSILTLRGQAQAPPRVICTSRNLYGTQSLELPFQGAHRLMWAKIGPVGAVVAFAILIAIVCYITQTRRKKNVTESPSFSAGDNPHVLYSPEFRISGAPDKYESEKRLGSERRLLGLRGEPPELDLSYSHSDLGKRPTKDSYTLTEELAEYAEIRVK
With B1, the “inhibition of neurite outgrowth compared to control cells” value in test [3] is listed as “at least 70%”. Besides, the “inhibition of neurite outgrowth” value in test [4] (DRG neurons from adult rats) was “about 40%”. Moreover, the “neurite length on MAG-expressing cells compared to control cells” value in test [4] (DRG neurons from two-day old rats) is given as “almost twice as long”. In addition, the “effect on neurite growth” value in test [5] is on record as “potent inhibitor of neurite growth in all cell types tested”.

B2: Po: another myelin protein expressed by CHO cells, specificity control (protein, UniProt P25189 30-248, looked up)
Myelin protein P0: IVVYTDREVHGAVGSRVTLHCSFWSSEWVSDDISFTWRYQPEGGRDAISIFHYAKGQPYIDEVGTFKERIQWVGDPRWKDGSIVIHNLDYSDNGTFTCDVKNPPDIVGKTSQVTLYVFEKVPTRYGVVLGAVIGGVLGVVLLLLLLFYVVRYCWLRRQAALQRRLSAMEKGKLHKPGKDASKRGRQTPVLYAMLDHSRSTKAVSEKKAKGLGESRKDKK
On to B2, for which the “effect on neurite outgrowth of CHO cells expressing the protein” value in test [6] is “lack of effect”.
